# Laboratory results published in article doi:10.1101/2021.09.30.462449v1 (biorxiv, 2021).
# Assays:
# Experiment in all cases: biochemical
# Conditions in all cases: read-out: % inhibition mean (Z'Lyte)
# ABL1 E255K = ABL1 E255K (Homo sapiens, UniProt P00519, E255K)
# CDK5/p35 = CDK5/p35 (Homo sapiens, UniProt Q00535)
# CDKL5 = CDKL5 (Homo sapiens, UniProt O76039)
# CSF1R (FMS) = CSF1R (FMS) (Homo sapiens, UniProt P07333)
# [1] = biological target: CSNK1E (CK1 epsilon) R178C (Homo sapiens, UniProt P49674, R178C)
# CSNK1E (CK1 epsilon) R178C, sequence (P49674 whole entry R178C): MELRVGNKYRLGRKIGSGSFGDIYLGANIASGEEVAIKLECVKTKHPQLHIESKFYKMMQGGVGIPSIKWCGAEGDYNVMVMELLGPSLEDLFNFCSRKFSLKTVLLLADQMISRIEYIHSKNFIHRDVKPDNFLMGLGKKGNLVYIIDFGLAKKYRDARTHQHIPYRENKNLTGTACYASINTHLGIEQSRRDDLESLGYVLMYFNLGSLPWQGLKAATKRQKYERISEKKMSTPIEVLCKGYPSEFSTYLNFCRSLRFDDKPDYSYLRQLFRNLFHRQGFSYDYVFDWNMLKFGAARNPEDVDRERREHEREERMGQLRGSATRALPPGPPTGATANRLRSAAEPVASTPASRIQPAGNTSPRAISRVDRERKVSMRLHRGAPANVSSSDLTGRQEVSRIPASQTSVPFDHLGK
# EEF2K = EEF2K (Homo sapiens, UniProt O00418)
# EPHB4 = EPHB4 (Homo sapiens, UniProt P54760)
# FER = FER (Homo sapiens, UniProt P16591)
# FES (FPS) = FES (FPS) (Homo sapiens, UniProt P07332)
# IGF1R = IGF1R (Homo sapiens, UniProt P08069)
# ITK = ITK (Homo sapiens, UniProt Q08881)
# JAK2 = JAK2 (Homo sapiens, UniProt O60674)
# KIT V560G = KIT V560G (Homo sapiens, UniProt P10721, V560G)
# LCK = LCK (Homo sapiens, UniProt P06239)
# MET M1250T = MET M1250T (Homo sapiens, UniProt P08581, M1250T)
# MST4 = MST4 (Homo sapiens, UniProt Q9P289)
# MST4, sequence (Q9P289 whole entry): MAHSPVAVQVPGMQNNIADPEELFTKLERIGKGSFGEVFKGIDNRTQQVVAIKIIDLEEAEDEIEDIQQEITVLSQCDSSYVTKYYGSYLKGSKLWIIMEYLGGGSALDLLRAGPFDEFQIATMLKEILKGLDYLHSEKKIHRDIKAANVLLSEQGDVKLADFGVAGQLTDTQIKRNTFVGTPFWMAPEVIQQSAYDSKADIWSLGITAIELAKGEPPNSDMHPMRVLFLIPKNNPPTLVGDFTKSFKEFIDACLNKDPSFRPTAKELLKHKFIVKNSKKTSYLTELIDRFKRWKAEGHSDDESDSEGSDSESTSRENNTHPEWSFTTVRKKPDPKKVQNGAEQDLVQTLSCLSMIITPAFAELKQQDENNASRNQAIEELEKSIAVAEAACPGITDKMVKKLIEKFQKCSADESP
# PAK1 = PAK1 (Homo sapiens, UniProt Q13153)
# PAK1, sequence (Q13153 whole entry): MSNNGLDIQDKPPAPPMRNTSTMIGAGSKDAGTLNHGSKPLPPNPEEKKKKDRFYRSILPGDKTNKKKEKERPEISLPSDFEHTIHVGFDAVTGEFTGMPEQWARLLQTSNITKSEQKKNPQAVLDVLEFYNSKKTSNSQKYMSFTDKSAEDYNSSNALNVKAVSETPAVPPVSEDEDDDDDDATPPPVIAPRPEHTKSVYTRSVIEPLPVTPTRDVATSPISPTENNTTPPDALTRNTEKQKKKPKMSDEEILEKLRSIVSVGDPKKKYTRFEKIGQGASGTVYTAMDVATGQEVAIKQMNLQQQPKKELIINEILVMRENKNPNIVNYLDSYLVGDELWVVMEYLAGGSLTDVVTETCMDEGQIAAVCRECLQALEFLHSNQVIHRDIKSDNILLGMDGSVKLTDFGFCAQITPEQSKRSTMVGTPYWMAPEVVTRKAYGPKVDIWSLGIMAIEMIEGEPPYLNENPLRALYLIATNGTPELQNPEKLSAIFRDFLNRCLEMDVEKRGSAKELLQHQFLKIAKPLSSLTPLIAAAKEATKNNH
# PASK = PASK (Homo sapiens, UniProt Q96RG2)
# PASK, sequence (Q96RG2 whole entry): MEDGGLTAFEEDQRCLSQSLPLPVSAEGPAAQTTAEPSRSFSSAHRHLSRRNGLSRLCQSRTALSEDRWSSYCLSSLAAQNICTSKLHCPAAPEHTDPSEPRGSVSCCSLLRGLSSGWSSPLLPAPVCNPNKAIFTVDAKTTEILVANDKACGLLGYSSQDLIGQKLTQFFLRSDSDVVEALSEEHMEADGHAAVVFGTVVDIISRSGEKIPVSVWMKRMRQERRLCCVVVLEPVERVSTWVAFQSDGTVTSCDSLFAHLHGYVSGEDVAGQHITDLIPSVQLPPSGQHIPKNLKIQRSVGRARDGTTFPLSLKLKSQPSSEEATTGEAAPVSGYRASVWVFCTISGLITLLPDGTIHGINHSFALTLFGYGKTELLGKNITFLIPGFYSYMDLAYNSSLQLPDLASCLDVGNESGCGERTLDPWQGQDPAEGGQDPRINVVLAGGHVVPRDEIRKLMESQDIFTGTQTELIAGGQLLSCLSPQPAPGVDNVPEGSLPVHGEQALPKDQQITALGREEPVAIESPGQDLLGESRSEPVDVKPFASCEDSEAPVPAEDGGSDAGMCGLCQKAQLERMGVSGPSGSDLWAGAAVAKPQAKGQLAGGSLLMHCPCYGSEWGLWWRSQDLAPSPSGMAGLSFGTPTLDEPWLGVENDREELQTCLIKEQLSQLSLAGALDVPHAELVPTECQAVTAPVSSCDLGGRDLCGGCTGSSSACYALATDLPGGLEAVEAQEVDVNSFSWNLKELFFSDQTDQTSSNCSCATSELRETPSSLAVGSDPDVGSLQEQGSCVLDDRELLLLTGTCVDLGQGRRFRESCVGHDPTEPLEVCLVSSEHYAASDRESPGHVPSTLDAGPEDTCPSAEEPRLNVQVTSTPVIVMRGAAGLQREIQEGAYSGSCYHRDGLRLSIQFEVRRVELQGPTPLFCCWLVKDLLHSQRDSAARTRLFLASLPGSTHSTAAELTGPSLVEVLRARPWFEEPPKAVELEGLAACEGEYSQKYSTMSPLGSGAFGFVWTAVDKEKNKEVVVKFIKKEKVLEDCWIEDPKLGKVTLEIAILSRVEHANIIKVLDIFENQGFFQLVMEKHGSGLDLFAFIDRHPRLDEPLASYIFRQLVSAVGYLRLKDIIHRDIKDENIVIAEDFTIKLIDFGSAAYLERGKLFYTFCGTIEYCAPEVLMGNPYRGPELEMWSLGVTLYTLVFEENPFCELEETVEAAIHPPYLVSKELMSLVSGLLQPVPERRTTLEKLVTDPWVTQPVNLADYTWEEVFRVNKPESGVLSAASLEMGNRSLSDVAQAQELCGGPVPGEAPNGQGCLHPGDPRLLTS
# PDGFRA (PDGFR alpha) = PDGFRA (PDGFR alpha) (Homo sapiens, UniProt P16234)
# PDGFRA (PDGFR alpha), sequence (P16234 whole entry): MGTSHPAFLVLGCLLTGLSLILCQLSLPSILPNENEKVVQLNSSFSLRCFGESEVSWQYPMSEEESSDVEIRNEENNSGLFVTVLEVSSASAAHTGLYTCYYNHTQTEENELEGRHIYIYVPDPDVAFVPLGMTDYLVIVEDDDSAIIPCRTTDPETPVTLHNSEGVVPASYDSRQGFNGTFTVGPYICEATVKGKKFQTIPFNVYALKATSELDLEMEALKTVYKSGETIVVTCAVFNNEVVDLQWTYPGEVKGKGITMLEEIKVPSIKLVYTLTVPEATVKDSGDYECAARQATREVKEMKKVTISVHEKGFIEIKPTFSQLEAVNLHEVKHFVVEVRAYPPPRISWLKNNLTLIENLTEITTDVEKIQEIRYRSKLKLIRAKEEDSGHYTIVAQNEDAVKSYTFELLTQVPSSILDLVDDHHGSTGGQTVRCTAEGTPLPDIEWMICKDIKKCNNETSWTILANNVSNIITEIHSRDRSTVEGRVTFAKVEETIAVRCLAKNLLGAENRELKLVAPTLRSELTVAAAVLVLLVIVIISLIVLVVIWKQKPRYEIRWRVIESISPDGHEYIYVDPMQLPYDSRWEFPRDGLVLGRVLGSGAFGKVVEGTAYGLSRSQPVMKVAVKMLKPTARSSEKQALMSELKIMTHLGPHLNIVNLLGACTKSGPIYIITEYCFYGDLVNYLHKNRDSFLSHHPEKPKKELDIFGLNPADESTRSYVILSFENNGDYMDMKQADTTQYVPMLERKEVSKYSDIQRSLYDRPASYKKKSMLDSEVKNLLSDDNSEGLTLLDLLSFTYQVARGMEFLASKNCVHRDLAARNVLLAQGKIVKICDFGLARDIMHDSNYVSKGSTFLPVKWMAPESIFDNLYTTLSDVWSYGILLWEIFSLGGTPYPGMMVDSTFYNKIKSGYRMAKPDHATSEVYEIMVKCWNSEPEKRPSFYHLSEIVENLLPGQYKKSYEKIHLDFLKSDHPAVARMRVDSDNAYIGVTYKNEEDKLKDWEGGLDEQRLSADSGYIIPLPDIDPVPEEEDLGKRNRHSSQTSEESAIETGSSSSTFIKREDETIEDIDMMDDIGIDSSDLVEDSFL
# PDGFRA D842V = PDGFRA D842V (Homo sapiens, UniProt P16234, D842V)
# PDGFRA D842V, sequence (P16234 whole entry D842V): as the sequence (P16234 whole entry) above, with D842V counted along it
# PDGFRA V561D = PDGFRA V561D (Homo sapiens, UniProt P16234, V561D)
# PDGFRA V561D, sequence (P16234 whole entry V561D): as the sequence (P16234 whole entry) above, with V561D counted along it
# PRKCB2 (PKC beta II) = PRKCB2 (PKC beta II) (Homo sapiens, UniProt P05771)
# PRKCG (PKC gamma) = PRKCG (PKC gamma) (Homo sapiens, UniProt P05129)
# PTK2B (FAK2) = PTK2B (FAK2) (Homo sapiens, UniProt Q14289)
# RET S891A = RET S891A (Homo sapiens, UniProt P07949, S891A)
# RET V804L = RET V804L (Homo sapiens, UniProt P07949, V804L)
# STK25 (YSK1) = STK25 (YSK1) (Homo sapiens, UniProt O00506)
# TEK (Tie2) = TEK (Tie2) (Homo sapiens, UniProt Q02763)
# TNK1 = TNK1 (Homo sapiens, UniProt Q13470)
# ABL1 E255K, sequence (P00519 whole entry E255K): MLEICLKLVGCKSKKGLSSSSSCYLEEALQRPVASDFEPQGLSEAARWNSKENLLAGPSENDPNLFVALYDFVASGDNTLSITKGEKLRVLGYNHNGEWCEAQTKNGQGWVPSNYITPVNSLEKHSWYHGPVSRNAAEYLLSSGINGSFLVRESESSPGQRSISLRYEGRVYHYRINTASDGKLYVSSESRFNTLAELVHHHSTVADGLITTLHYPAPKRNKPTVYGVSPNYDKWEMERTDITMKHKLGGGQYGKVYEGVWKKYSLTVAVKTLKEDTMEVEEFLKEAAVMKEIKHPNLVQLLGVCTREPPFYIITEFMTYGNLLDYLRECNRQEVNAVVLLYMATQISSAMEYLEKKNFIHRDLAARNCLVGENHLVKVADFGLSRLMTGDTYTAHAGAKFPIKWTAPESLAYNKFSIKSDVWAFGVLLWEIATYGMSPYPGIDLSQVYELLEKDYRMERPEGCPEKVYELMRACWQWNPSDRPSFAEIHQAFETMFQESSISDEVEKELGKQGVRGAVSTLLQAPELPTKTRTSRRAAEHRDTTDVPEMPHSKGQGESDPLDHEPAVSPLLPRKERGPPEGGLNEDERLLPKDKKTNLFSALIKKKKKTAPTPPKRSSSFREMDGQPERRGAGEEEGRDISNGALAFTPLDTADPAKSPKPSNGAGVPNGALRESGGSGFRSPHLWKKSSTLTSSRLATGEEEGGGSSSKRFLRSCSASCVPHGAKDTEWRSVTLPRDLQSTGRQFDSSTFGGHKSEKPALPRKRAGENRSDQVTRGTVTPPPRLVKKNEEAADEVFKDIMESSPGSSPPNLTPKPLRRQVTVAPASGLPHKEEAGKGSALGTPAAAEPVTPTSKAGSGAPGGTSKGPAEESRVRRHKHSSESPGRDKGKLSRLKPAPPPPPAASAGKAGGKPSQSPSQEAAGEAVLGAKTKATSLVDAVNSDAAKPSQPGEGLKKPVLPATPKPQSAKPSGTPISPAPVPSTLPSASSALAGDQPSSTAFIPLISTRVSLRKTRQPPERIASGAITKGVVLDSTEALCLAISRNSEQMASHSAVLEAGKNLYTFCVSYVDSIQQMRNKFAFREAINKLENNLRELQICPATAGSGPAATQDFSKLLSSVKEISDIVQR
smiles,measurement,setting,value
"COc1ccc2nc3cc(Cl)ccc3c(Nc3cc(CN4CCCC4)c(O)c(CN4CCCC4)c3)c2n1 [Pyronaridine, 4-[(7-Chloro-2-methoxybenzo[b][1,5]naphthyridin-10-yl)amino]-2,6-bis(1-pyrrolidinylmethyl)phenol phosphate (1:4)]",inhibition at 1 µM,ABL1 E255K,7%
same,inhibition at 1 µM,CDK5/p35,3%
same,inhibition at 1 µM,CDKL5,4%
same,inhibition at 1 µM,CSF1R (FMS),-3%
same,inhibition at 1 µM,[1],1%
same,inhibition at 1 µM,EEF2K,1%
same,inhibition at 1 µM,EPHB4,7%
same,inhibition at 1 µM,FER,-21%
same,inhibition at 1 µM,FES (FPS),-10%
same,inhibition at 1 µM,IGF1R,6%
same,inhibition at 1 µM,ITK,2%
same,inhibition at 1 µM,JAK2,4%
same,inhibition at 1 µM,KIT V560G,-5%
same,inhibition at 1 µM,LCK,12%
same,inhibition at 1 µM,MET M1250T,0%
same,inhibition at 1 µM,MST4,1%
same,inhibition at 1 µM,PAK1,6%
same,inhibition at 1 µM,PASK,-4%
same,inhibition at 1 µM,PDGFRA (PDGFR alpha),2%
same,inhibition at 1 µM,PDGFRA D842V,-1%
same,inhibition at 1 µM,PDGFRA V561D,2%
same,inhibition at 1 µM,PRKCB2 (PKC beta II),15%
same,inhibition at 1 µM,PRKCG (PKC gamma),-4%
same,inhibition at 1 µM,PTK2B (FAK2),-1%
same,inhibition at 1 µM,RET S891A,-3%
same,inhibition at 1 µM,RET V804L,1%
same,inhibition at 1 µM,STK25 (YSK1),-7%
same,inhibition at 1 µM,TEK (Tie2),5%
same,inhibition at 1 µM,TNK1,-3%
